Source: US8822510B2, “Substituted 3-phenyl-1,2,4-Oxadiazole compounds” (Bristol-Myers Squibb Company, priority 2010, dated 2014)

What was measured:
[1] = system: circulating lymphocytes; assay: Blood Lymphocyte Reduction Assay (BLR) in Rodents; type: in vivo; conditions: Lewis rats, oral, vs vehicle group
Experimental: Lewis rats were dosed orally with test article (as a solution or suspension in the vehicle) or vehicle alone (polyethylene glycol 300, “PEG300”). Blood was drawn at 4 hr and 24 h by retro-orbital bleeding. Blood lymphocyte counts were determined on an ADVIA 120 Hematology Analyzer (Siemens Healthcare Diagnostics). The results were measured as a reduction in the percentage of circulating lymphocytes as compared to the vehicle treated group at the 4 hr and 24 hr measurement. The results represent the average results of all animals within each treatment group (n=3-4).
The following examples were tested in the Blood Lymphocyte Reduction assay (BLR) described hereinabove and the results are shown in Table C for rats.

[2] = biological target: T1, S1P1 (Homo sapiens (Human), UniProt P21453); assay: S1P1 Binding Assay; conditions: 33P-S1P ligand, membranes from CHO cells expressing human S1P1
Experimental: Membranes were prepared from CHO cells expressing human S1P1. Cells pellets (1×10^8 cells/pellet) were suspended in buffer containing 20 mM HEPES, pH 7.5, 50 mM NaCl, 2 mM EDTA and Protease Inhibitor cocktail (Roche), and disrupted on ice using the Polytron homogenizer. The homogenate was centrifuged at 20,000 rpm (48,000 g) and the supernatant was discarded. The membrane pellets were resuspended in buffer containing 50 mM HEPES, pH 7.5, 100 mM NaCl, 1 mM MgCl2, 2 mM EDTA and stored in aliquots at […] after protein concentration determination.
Membranes (2 μg/well) and 0.03 nM final concentration of 33P-S1P ligand (1 mCi/ml, American Radiolabeled Chemicals) diluted in assay buffer (50 mM HEPES, pH7.4, 5 mM MgCl2, 1 mM CaCl2, 0.5% fatty acid free BSA, 1 mM NaF) were added to the compound plates (384 Falcon v-bottom plate (0.5 μl/well in a 11 point, 3-fold dilution). Binding was performed for 45 minutes at room temperature, terminated by collecting the membranes onto 384-well Millipore FB filter plates, and radioactivity was measured by TOPCOUNT®. The competition data of the test compounds over a range of concentrations was plotted as percentage inhibition of radioligand specific binding. The IC50 is defined as the concentration of competing ligand needed to reduce specific binding by 50%.
Table A below lists S1P1 Binding IC50 values from the following examples of this invention measured in the S1P1 binding assay described hereinabove. The results in Table A were rounded to two digits.

[3] = biological target: T1, S1P1; assay: Receptor [35S] GTPγS Binding Assay, S1P1; type: biochemical; conditions: membranes from S1P1/CHO cells
Experimental: Membranes prepared from S1P1/CHO cells or EDG3-Ga15-b1a HEK293T cells were added to the compound plate (40 μl/well, final protein 3 μg/well) with MULTIDROP®. [^35S] GTP (1250 Ci/mmol, Perkin Elmer) was diluted in assay buffer: 20 mM HEPES, pH7.5, 10 mM MgCl2, 150 mM NaCl, 1 mM EGTA, 1 mM DTT, 10 μM GDP, 0.1% fatty acid free BSA, and 10 μg/ml Saponin to 0.4 nM. 40 μl of the [^35S] GTP solution was added to the compound plate with a final concentration of 0.2 nM. The reaction was kept at room temperature for 45 min. At the end of incubation, all the mixtures in the compound plate were transferred to Millipore 384-well FB filter plates via the VELOCITY 11® Vprep liquid handler. The filter plate was washed with water 4 times by using the manifold Embla plate washer and dried at 60° C. for 45 min. MicroScint 20 scintillation fluid (30 μl) was added to each well for counting on the Packard TOPCOUNT®. […] The results in Table B were rounded to two digits. […]

[4] = biological target: S1P3 (Homo sapiens (Human), UniProt Q99500); assay: Receptor [35S] GTPγS Binding Assay, S1P3; type: biochemical; conditions: membranes from EDG3-Ga15-b1a HEK293T cells
Experimental: Compounds were loaded in a 384 Falcon v-bottom plate (0.5 μl/well in a 11 point, 3-fold dilution). Membranes prepared from S1P1/CHO cells or EDG3-Ga15-b1a HEK293T cells were added to the compound plate (40 μl/well, final protein 3 μg/well) with MULTIDROP®. [^35S] GTP (1250 Ci/mmol, Perkin Elmer) was diluted in assay buffer: 20 mM HEPES, pH7.5, 10 mM MgCl2, 150 mM NaCl, 1 mM EGTA, 1 mM DTT, 10 μM GDP, 0.1% fatty acid free BSA, and 10 μg/ml Saponin to 0.4 nM. 40 μl of the [^35S] GTP solution was added to the compound plate with a final concentration of 0.2 nM. The reaction was kept at room temperature for 45 min. At the end of incubation, all the mixtures in the compound plate were transferred to Millipore 384-well FB filter plates via the VELOCITY 11® Vprep liquid handler. The filter plate was washed with water 4 times by using the manifold Embla plate washer and dried at 60° C. for 45 min. MicroScint 20 scintillation fluid (30 μl) was added to each well for counting on the Packard TOPCOUNT®. EC50 is defined as the agonist concentration that corresponds to 50% of the Ymax (maximal response) obtained for each individual compound tested. The results in Table B were rounded to two digits.
A smaller value for GTPγS S1P1 EC50 value indicated greater activity for the compound in the GTPγS S1P1 binding assay. A larger value for the GTPγS S1P3 EC50 value indicated less activity in the GTPγS S1P3 binding assay.

S1P3, sequence (Q99500 whole entry): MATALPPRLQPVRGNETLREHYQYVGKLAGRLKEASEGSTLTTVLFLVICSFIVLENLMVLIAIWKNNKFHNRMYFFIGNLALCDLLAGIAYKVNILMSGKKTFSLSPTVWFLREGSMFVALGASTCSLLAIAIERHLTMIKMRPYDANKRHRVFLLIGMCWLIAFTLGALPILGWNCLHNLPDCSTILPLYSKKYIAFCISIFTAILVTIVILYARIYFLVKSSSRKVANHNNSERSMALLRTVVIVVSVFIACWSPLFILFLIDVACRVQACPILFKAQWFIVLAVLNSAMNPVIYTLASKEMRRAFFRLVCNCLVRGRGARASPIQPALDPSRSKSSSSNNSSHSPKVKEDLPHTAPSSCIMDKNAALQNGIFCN
T1 sequence (P21453 whole entry): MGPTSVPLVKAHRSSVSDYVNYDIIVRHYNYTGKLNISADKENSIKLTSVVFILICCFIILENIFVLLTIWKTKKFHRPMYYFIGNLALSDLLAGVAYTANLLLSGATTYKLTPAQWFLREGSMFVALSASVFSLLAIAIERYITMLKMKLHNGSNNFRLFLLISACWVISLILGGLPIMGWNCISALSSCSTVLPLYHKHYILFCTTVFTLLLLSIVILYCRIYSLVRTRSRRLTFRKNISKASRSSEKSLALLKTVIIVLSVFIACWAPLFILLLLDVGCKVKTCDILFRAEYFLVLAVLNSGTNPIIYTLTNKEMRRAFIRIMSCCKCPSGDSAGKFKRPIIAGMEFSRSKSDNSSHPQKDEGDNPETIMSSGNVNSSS

| IC50 [2] [µM] | EC50 [3] [µM] | EC50 [4] [µM] | Compound | % REDUCTION IN LYMPHOCYTES AT 4 HR. ([1]; 1.0 mg/kg) [%] | % REDUCTION IN LYMPHOCYTES AT 4 HR. ([1]; 10.0 mg/kg) [%] | % REDUCTION IN LYMPHOCYTES AT 4 HR. ([1]; 5.0 mg/kg) [%] |
| --- | --- | --- | --- | --- | --- | --- |
|  |  |  | O=C(O)C1CN(Cc2ccc(-c3noc(CCC4(c5ccccc5)CCCCC4)n3)cc2)C1 [Example 1, 1-(4-(5-(2-(1-phenylcyclohexyl)ethyl)-1,2,4-oxadiazol-3-yl)benzyl)azetidine-3-carboxylic acid] | 75 |  |  |
| 0.00012 | 0.00051 | 0.0102 | Cc1cc(-c2noc(CCC3(c4ccc(F)cc4)CCCCC3)n2)cc(C)c1OC[C@@H](O)CO [Example 4] |  |  |  |
| 0.00047 | 0.00023 | 0.0164 | O=C(O)C1CN(Cc2ccc(-c3noc(CCCC4(c5ccc(F)cc5)CCCCC4)n3)cc2)C1 [Example 9, 1-(4-(5-(3-(1-(4-fluorophenyl)cyclohexyl)propyl)-1,2,4-oxadiazol-3-yl)benzyl)azetidine-3-carboxylic acid] |  |  |  |
| 0.00168 | 0.00217 | 0.0586 | O=C(O)C1CN(Cc2ccc(-c3noc(CCCC4(c5ccccc5)CCCCC4=O)n3)cc2)C1 (stereo not drawn) [Example 11, 1-(4-(5-(3-(2-oxo-1-phenylcyclohexyl)propyl)-1,2,4-oxadiazol-3-yl)benzyl)azetidine-3-carboxylic acid] |  |  |  |
| 0.00031 | 0.00078 | 0.00923 | O=C(O)C1CN(Cc2ccc(-c3noc(COCC4(c5ccc(F)cc5)CCCCC4)n3)cc2)C1 [Example 18, 1-(4-(5-(((1-(4-fluorophenyl)cyclohexyl)methoxy)methyl)-1,2,4-oxadiazol-3-yl)benzyl)azetidine-3-carboxylic acid] |  |  |  |
| 0.477 | 1.27 | 5.38 | O=C1NC(=O)C2(CN(Cc3ccc(-c4noc(COCC5(c6ccc(Cl)cc6)CCC5)n4)cc3)C2)N1 [Example 19, 2-(4-(5-(((1-(4-chlorophenyl)cyclobutyl)methoxy)methyl)-1,2,4-oxadiazol-3-yl)benzyl)-2,5,7-triazaspiro[3.4]octane-6,8-dione] |  |  |  |
|  |  |  | Cc1cc(-c2noc(/C(F)=C/C3(c4ccc(Cl)cc4)CC3)n2)cc(C)c1OC[C@@H](O)CO [Example 48, (2S)-3-(4-(5-((Z)-2-(1-(4-chlorophenyl)cyclopropyl)-1-fluorovinyl)-1,2,4-oxadiazol-3-yl)-2,6-dimethylphenoxy)-1,2-propanediol] |  | 83 |  |
| 0.00575 | 0.0081 | 0.139 | Cc1cc(-c2noc(/C=C/C3(c4ccc(Cl)cc4)CCCCC3)n2)cc(C)c1OC[C@@H](O)CO [Example 52, (2S)-3-(4-(5-((E)-2-(1-(4-chlorophenyl)cyclohexyl)vinyl)-1,2,4-oxadiazol-3-yl)-2,6-dimethylphenoxy)-1,2-propanediol] |  |  |  |
| 0.00021 | 0.00274 | 0.00494 | O=C(O)C1CN(Cc2ccc(-c3noc(CCC4(c5ccc(F)cc5)CCCCC4)n3)cc2)C1 [Example 63, 1-(4-(5-(2-(1-(4-fluorophenyl)cyclohexyl)ethyl)-1,2,4-oxadiazol-3-yl)benzyl)-3-azetidinecarboxylic acid] |  |  |  |
| 0.135 | 0.7 | > 62.5 | O=C(O)C1CN(Cc2ccc(-c3noc(C(F)(F)C(O)C4(c5ccc(Cl)cc5)CC4)n3)cc2)C1 (stereo not drawn) [Example 85, 1-(4-(5-(2-(1-(4-chlorophenyl)cyclopropyl)-1,1-difluoro-2-hydroxyethyl)-1,2,4-oxadiazol-3-yl)benzyl)-3-azetidinecarboxylic acid] |  |  |  |
| 0.0267 |  |  | O=C(O)C1CN(Cc2ccc(-c3noc(/C=C/C4(c5ccc(C(F)(F)F)cc5)CCCCC4)n3)cc2)C1 [Example 88, 1-(4-(5-((E)-2-(1-(4-(trifluoromethyl)phenyl)cyclohexyl)vinyl)-1,2,4-oxadiazol-3-yl)benzyl)-3-azetidinecarboxylic acid] |  |  |  |
|  |  |  | O=C(O)C1CN(Cc2ccc(-c3noc(/C=C/C4(c5cccc(Cl)c5)CCCCC4)n3)cc2)C1 [Example 90, 1-(4-(5-((E)-2-(1-(3-chlorophenyl)cyclohexyl)vinyl)-1,2,4-oxadiazol-3-yl)benzyl)-3-azetidinecarboxylic acid] |  |  | 85 |
| 0.0456 | 0.0369 | 0.421 | O=C(O)C1CN(Cc2ccc(-c3noc(/C=C/C4(c5ccc(Cl)cc5)CCCCC4)n3)cc2)C1 [Example 92, 1-(4-(5-((E)-2-(1-(4-chlorophenyl)cyclohexyl)vinyl)-1,2,4-oxadiazol-3-yl)benzyl)-3-azetidinecarboxylic acid] |  |  |  |
| 0.00054 | 0.0007 | 0.0274 | O=C(O)C1CN(Cc2ccc(-c3noc(CCCC4(c5ccc(Cl)cc5)CCCCC4)n3)cc2)C1 [Example 98, 1-(4-(5-(3-(1-(4-chlorophenyl)cyclohexyl)propyl)-1,2,4-oxadiazol-3-yl)benzyl)-3-azetidinecarboxylic acid] |  |  |  |
| 0.0034 | 0.00041 | 0.0117 | O=C(O)C1CN(Cc2ccc(-c3noc(C/C=C/C4(c5ccc(F)cc5)CCCCC4)n3)cc2)C1 [Example 100, 1-(4-(5-((2E)-3-(1-(4-fluorophenyl)cyclohexyl)-2-propen-1-yl)-1,2,4-oxadiazol-3-yl)benzyl)-3-azetidinecarboxylic acid] |  |  |  |
|  | 0.0171 | 1.49 | O=C(O)C1CN(Cc2ccc(-c3noc(/C=C/C4(Cc5ccccc5)CCC4)n3)cc2)C1 [Example 103, 1-(4-(5-((E)-2-(1-benzylcyclobutyl)vinyl)-1,2,4-oxadiazol-3-yl)benzyl)-3-azetidinecarboxylic acid] |  |  |  |
| 0.861 | 7.36 | > 62.5 | O=C(O)C1CN(Cc2ccc(-c3noc(CCC4(c5cccnc5)CCOCC4)n3)cc2)C1 [Example 108, 1-(4-(5-(2-(4-(3-pyridinyl)tetrahydro-2H-pyran-4-yl)ethyl)-1,2,4-oxadiazol-3-yl)benzyl)-3-azetidinecarboxylic acid] |  |  |  |
| 0.012 | 0.0507 | 5.24 | O=C(O)C1CN(Cc2ccc(-c3noc(COCC4(c5ccc(Cl)cc5)CCC4)n3)c(Cl)c2)C1 [Example 141, 1-(3-chloro-4-(5-(((1-(4-chlorophenyl)cyclobutyl)methoxy)methyl)-1,2,4-oxadiazol-3-yl)benzyl)-3-azetidinecarboxylic acid] |  |  |  |
| 0.00972 | 0.0175 | 3.73 | O=C(O)C1CN(Cc2ccc(-c3noc(COCC4(c5ccc(Cl)cc5)CCC4)n3)c(F)c2)C1 [Example 143, 1-(4-(5-(((1-(4-chlorophenyl)cyclobutyl)methoxy)methyl)-1,2,4-oxadiazol-3-yl)-3-fluorobenzyl)-3-azetidinecarboxylic acid] |  |  |  |
